Reference: patent publication US4894377A, “β-carbolines and their use as medicinal agents” (Schering Aktiengesellschaft, priority 1983, dated 1990)
Converted amounts (≈) assume the structure as drawn.

How the values were obtained:
benzodiazepine receptors = assay: displacement of specific binding of 3H flunitrazepam in vitro (rat cerebral membrane suspension); settings: 50% displacement of specific binding of 3H flunitrazepam (1.0 nM, 0° C.), rat cerebrum
[1] = tested on: convulsions induced by pentylenetetrazole (Pentazol); assay: protection from convulsions and death induced by pentylenetetrazole (Pentazol); assay type: in vivo; settings: Mus musculus, ip; protects 50% of mice from convulsions and death; test compound intraperitoneal, 15-30 minutes before Pentazol
Procedure: (§1) The compounds of this invention show, in a pharmacological test, anxiolytic, antiagressive, and anticonvulsive activities. Two testing systems were employed to examine the anticonvulsive effect. The elimination of convulsions induced, on the one hand, by pentylenetetrazole (Pentazol) and, on the other hand, by 6,7-dimethoxy-4-ethyl-β-carboline-3-carboxylic acid methyl ester (DMCM) was examined. Pentazol and DMCM, respectively, are administered 15-30 minutes after intraperitoneal administration of the test compound in an amount of 15 mg/kg as an aqueous solution (pH 7) intraperitoneally and, respectively, in an amount of 150 mg/kg as a hydrochloric acid solution (pH 2-3) subcutaneously. These quantities induce clonic and tonic convulsions leading to death in untreated animals.
(§2) The ED50 values indicated in the table were determined according to the method by Litchfield and Wilcoxon (1949) as the amount of antagonistically active compound required to protect 50% of the animals from convulsions and death.

[2] = tested on: convulsions induced by 6,7-dimethoxy-4-ethyl-β-carboline-3-carboxylic acid methyl ester (DMCM); assay: protection from convulsions and death induced by DMCM; assay type: in vivo; settings: Mus musculus, ip; protects 50% of mice from convulsions and death; test compound intraperitoneal, 15-30 minutes before DMCM
Procedure: as §1, §2

[3] = tested on: clonic convulsions at 111 dB; assay: audiogenic seizure test; assay type: in vivo; settings: Mus musculus, ip, 0.5 h; dose at which 40% of mice show no convulsions at 111 dB (14 kHz); DBA/2 mice, intraperitoneal, 30 minutes prior
Procedure: The compounds of this invention also show a convulsion-relieving and/or convulsion-eliminating effect in the audiogenic seizure test. For this purpose, 18-21 day old male mice weighing 8-12 g (DBA/2 mice) receive intraperitoneally the compound to be tested as an ultrasound microsuspension in water/"Cremofor" EL (95:5) 30 minutes prior to testing. The animals are then exposed, in a soundproof wooden box (25×22×15 cm), to a sinusoidal sound of 14 kHz at 111 dB. The sound is generated immediately after transferring the animal into the box. Occurrence of clonic convulsions is recorded for 30 seconds. The ED50 value in the table indicates the dose at which 40% of the mice show no convulsions at 111 dB (80% of the control mice show convulsions at 111 dB).

| Structure (SMILES) | IC50 (in vitro) (benzodiazepine receptors) [ng/mL] | ED50 [1] [mg/kg] | ED50 [2] [mg/kg] | ED50 [3] [mg/kg] |
| --- | --- | --- | --- | --- |
| CCOC(=O)c1ncc2[nH]c3cccc(OC(C)c4ccccc4)c3c2c1COC (stereo not drawn) [α-methyl] | 1.1 (≈ 2.72 nM) | 3 | 0.1 | 0.01 |
| CCOC(=O)c1ncc2[nH]c3cccc(OCCc4ccccc4)c3c2c1COC | 0.8 (≈ 1.98 nM) | 40 | – | – |
| CCOC(=O)c1ncc2[nH]c3cccc(OCc4cccc(Cl)c4)c3c2c1COC [Substituent 3-chloro, 5-(3-chlorobenzyloxy)-4-methoxymethyl-β-carboline-3-carboxylic acid ethyl ester] | 1.4 (≈ 3.3 nM) | 0.9 | 0.3 | 0.08 |
| CCOC(=O)c1ncc2[nH]c3cccc(OCc4cccc(Br)c4)c3c2c1COC [Substituent 3-bromo, 5-(3-bromobenzyloxy)-4-methoxymethyl-β-carboline-3-carboxylic acid ethyl ester] | 0.8 (≈ 1.7 nM) | 6 | – | – |
| CCOC(=O)c1ncc2[nH]c3cccc(OCc4ccc(F)cc4)c3c2c1COC [Substituent 4-fluoro, 5-(4-fluorobenzyloxy)-4-methoxymethyl-β-carboline-3-carboxylic acid ethyl ester] | 0.4 (≈ 0.979 nM) | 30 | 0.1 | 0.2 |
| CCOC(=O)c1ncc2[nH]c3cccc(OCc4cccc(OC)c4)c3c2c1COC [Substituent 3-methoxy, 5-(3-methoxybenzyloxy)-4-methoxymethyl-β-carboline-3-carboxylic acid ethyl ester] | 0.5 (≈ 1.19 nM) | > 100 | – | – |
| CCOC(=O)c1ncc2[nH]c3cccc(OCc4ccc(C)c(C)c4)c3c2c1COC [3,4-dimethyl, 5-(3,4-dimethylbenzyloxy)-4-methoxymethyl-β-carboline-3-carboxylic acid ethyl ester] | 1.7 (≈ 4.06 nM) | 30 | – | – |
| CCOC(=O)c1ncc2[nH]c3cccc(OCc4ccccc4F)c3c2c1COC [Substituent 2-fluoro, 5-(2-fluorobenzyloxy)-4-methoxymethyl-β-carboline-3-carboxylic acid ethyl ester] | 0.3 (≈ 0.735 nM) | 13 | 0.4 | 0.05 |
| CCOC(=O)c1ncc2[nH]c3cccc(OCc4ccc(Cl)c(Cl)c4)c3c2c1COC [3,4-dichloro, 5-(3,4-dichlorobenzyloxy)-4-methoxymethyl-β-carboline-3-carboxylic acid ethyl ester] | 2.1 (≈ 4.57 nM) | 6 | 2.2 | – |
| CCOC(=O)c1ncc2[nH]c3cccc(OCc4cccc(F)c4)c3c2c1COC [Substituent 3-fluoro, 5-(3-fluorobenzyloxy)-4-methoxymethyl-β-carboline-3-carboxylic acid ethyl ester] | 0.3 (≈ 0.735 nM) | 12 | 0.3 | 0.05 |
| CCOC(=O)c1ncc2[nH]c3cccc(OCc4ccc([N+](=O)[O-])cc4)c3c2c1COC [Substituent 4-nitro, 5-(4-nitrobenzyloxy)-4-methoxymethyl-β-carboline-3-carboxylic acid ethyl ester] | 0.2 (≈ 0.459 nM) | > 50 | – | – |
| CCOC(=O)c1ncc2[nH]c3cccc(OCc4ccc(C)cc4)c3c2c1COC [Substituent 4-methyl, 5-(4-methylbenzyloxy)-4-methoxymethyl-β-carboline-3-carboxylic acid ethyl ester] | 0.9 (≈ 2.23 nM) | 30 | – | – |
| CCOC(=O)c1ncc2[nH]c3cccc(OCCCc4ccccc4)c3c2c1COC | 1.9 (≈ 4.54 nM) | 30 | 5.5 | – |
| CCOC(=O)c1ncc2[nH]c3cccc(OCc4cccc(C(F)(F)F)c4)c3c2c1COC [3-trifluoromethyl, 5-(3-trifluoromethylbenzyloxy)-4-methoxymethyl-β-carboline-3-carboxylic acid ethyl ester] | 1.4 (≈ 3.05 nM) | 12 | – | – |
| CCOC(=O)c1ncc2[nH]c3cccc(OCc4ccccc4)c3c2c1COC | 2 (≈ 5.12 nM) | 15 | 0.6 | 0.5 |
| CCOC(=O)c1ncc2[nH]c3cccc(OCc4ccc(Cl)cc4)c3c2c1COC [Substituent 4-chloro, 5-(4-chlorobenzyloxy)-4-methoxymethyl-β-carboline-3-carboxylic acid ethyl ester] | 0.9 (≈ 2.12 nM) | > 30 | – | – |
| CCOC(=O)c1ncc2[nH]c3cccc(OC(C)c4cccc(Cl)c4)c3c2c1COC (stereo not drawn) [α-methyl, 3-chloro, 5-[1-(3-chlorophenyl)ethoxy]-4-methoxymethyl-β-carboline-3-carboxylic acid ethyl ester] | 4.3 (≈ 9.8 nM) | 2 | – | – |
